{"source": "patent EP1286591B1", "about": "“TREATING SMOOTH MUSCLE HYP[…] (R)-OXYBUTYNIN AND (R)- DESETHYLOXYBUTYNIN” (Watson Pharmaceuticals, Inc., priority 2000, dated 2001)", "key": {"[1]": {"experiment": "Tolerability in laboratory animals (acute toxicity in mice)", "assay_type": "in vivo", "settings": "compared with the S(+)-isomer", "procedure": "The experiments are carried out on conscious albino mice that are administered escalating doses of the test compounds intravenously or orally."}, "[2]": {"experiment": "Therapeutic effects compared with the racemates and optical antipodes", "settings": "compared to their corresponding racemates and their optical antipodes"}, "[3]": {"experiment": "Cardiovascular depressing activity (cardiac side effect studies)", "assay_type": "in vivo, guinea pigs", "settings": "unwanted side effect of racemic oxybutynin", "procedure": "Male guinea pigs (450-600 g) are anesthetized with freshly prepared dialurethane sodium. The jugular vein is catheterized for iv administration of test drugs and the trachea is exposed and cannulated. Subdermal electrodes are positioned for Lead II electrocardiogram recording, monitored on a Grass Polygraph recorder, set at a paper speed of 50 mm/sec. The animals are allowed to stabilize for 30 minute after completion of surgery, and three baseline EKG recordings are then made at 10-minute intervals. The animals are then given a dose of the test compound or vehicle as an intravenous infusion over 30 min. EKG recordings are used to determine QT intervals and heart rates. To compensate for variations in heart rates, QTc intervals are calculated from QT- and RR-intervals as known to those skilled in the art. Prolongation of QTc is indicative of a prolonged action potential, caused by an inhibition of the delayed rectifier potassium channel. Prolongation of QTc is the known cause of Torsades de Pointes ventricular fibrillation by drugs such as terodiline, terfenadine and astemizole (now withdrawn from the market)."}}, "data": [{"compound": "CCN(CC)CC#CCOC(=O)[C@](O)(c1ccccc1)C1CCCCC1", "note": "[R(-)-isomer of oxybutynin, R(-)-4-diethylamino-2-butynyl_-cyclohexyl-_-hydroxy-benzeneacetate]", "values": [{"measurement": "tolerated when given to laboratory animals", "setting": "[1]", "value": "much better tolerated than the S(+)-isomer"}, {"measurement": "therapeutic effects", "setting": "[2]", "value": "superior therapeutic effects"}]}, {"compound": "CCNCC#CCOC(=O)[C@](O)(c1ccccc1)C1CCCCC1", "note": "[R(-)-isomer of desethyloxybutynin, R(-)-4-ethylamino-2-butynyl cyclohexylphenyl-glycolate]", "values": [{"measurement": "therapeutic effects", "setting": "[2]", "value": "superior therapeutic effects"}]}, {"compound": "CCN(CC)CC#CCOC(=O)[C@@](O)(c1ccccc1)C1CCCCC1", "note": "[S(+)-isomer of oxybutynin]", "values": [{"measurement": "cardiovascular depressing activity", "setting": "[3]", "value": "serious cardiovascular depressing activity"}]}, {"compound": "CCNCC#CCOC(=O)[C@@](O)(c1ccccc1)C1CCCCC1", "note": "[S(+)-isomer of desethyloxybutynin]", "values": [{"measurement": "cardiovascular depressing activity", "setting": "[3]", "value": "serious cardiovascular depressing activity"}]}]}
